# Laboratory results from patent publication US20190076496A1, “POLYSACCHARIDE DIGESTION INHIBITOR” (Q' SAI CO., LTD., priority 2016, published 2019).
# How the values were obtained:
# Assay type in all cases: in vivo
# [1] = tested on: GK rat (Goto-Kakizaki rat); assay: Measurement of blood glucose level after loading sucrose; conditions: 90 minutes after sucrose 2 g/kg; acarbose 10 mg/kg oral
# Description: Each GK rat was fasted for 18 hours and its fasting blood glucose level was then measured. Thereafter, the test substance was orally administered to the rat using a disposable gastric probe and a disposable syringe. Two minutes after the administration of the test substance, starch (dissolved in purified water, at 2 g/kg body weight) was administered in a single oral dose. Blood was collected from the tail vein 30, 60, 90 and 120 minutes after the administration of starch, and the blood glucose level was measured using a simple type blood glucose meter (NIPRO Freestyle Freedom Lite, FS Blood Glucose Sensor Light, manufactured by Nipro Corporation).
# As described above, since the digestion process from starch to dextrose depends on the enzyme activities of both α-amylase and α-glucosidase, it cannot be ruled out from the results of Test Example 3 that the Astilbe thunbergii extract might inhibit only one of the enzyme activities in the body of an animal (the activity of the other enzyme activity cannot be inhibited). Accordingly, the digestion inhibitory effect of Astilbe thunbergii extract was analyzed using sucrose for which the digestion process depends only on α-glucosidase. Specifically, in the Approach 4, the blood glucose was measured using “sucrose (dissolved in purified water, at 2 g/kg body weight)” instead of “starch (dissolved in purified water, at 2 g/kg body weight)”. […]
# [2] = tested on: GK rat (Goto-Kakizaki rat); assay: Measurement of blood glucose level after loading starch; conditions: 60 minutes after starch 2 g/kg; acarbose 10 mg/kg body weight oral
# Description: Each GK rat (Goto-Kakizaki rat) was allowed to orally ingest an Astilbe thunbergii extract and immediately thereafter to orally ingest starch, and the blood glucose level up to 2 hours later was measured over time (Approach 4). In the case of a GK rat, since hyperglycemia is caused due to its low insulin secretion amount after meal, it is possible to sensitively analyze the influence of drugs on the digestion and absorption of saccharides.
# [Approach 4: Measurement of Blood Glucose Level after Loading Starch]
# GK rats (male, 5 weeks old) were obtained from Japan SLC, Inc. and preliminarily bred for 1 week before use. Seven rats per experimental group were used.
# (1) Japanese Pharmacopeia water for injection (a negative control))
# (2) A solution having acarbose dissolved in the water for injection (a positive control); administered at 10 mg/kg body weight
# (3) A suspension having the hydrous ethanol extract of Astilbe thunbergii suspended in the water for injection; administered at 100 mg/kg body weight or 300 mg/kg body weight […]
# Each GK rat was fasted for 18 hours and its fasting blood glucose level was then measured. […] Blood was collected from the tail vein 30, 60, 90 and 120 minutes after the administration of starch, and the blood glucose level was measured using a simple type blood glucose meter (NIPRO Freestyle Freedom Lite, FS Blood Glucose Sensor Light, manufactured by Nipro Corporation).
# [3] = tested on: GK rat (Goto-Kakizaki rat); assay: Measurement of blood glucose level after loading glucose (dextrose)
# Description: Specifically, each GK rat was allowed to orally ingest the Astilbe thunbergii extract and dextrose and its influence on a change in the blood glucose level was analyzed (Approach 5). In this analysis, an experiment group orally ingesting anagliptin, a DPP-IV inhibitor, was used as a positive control.
# [Approach 5: Measurement of Blood Glucose Level after Loading Glucose]
# (1) Japanese Pharmacopeia water for injection (a negative control)
# (2) A solution having anagliptin dissolved in the water for injection (a positive control); administered at 10 mg/kg body weight
# (3) A suspension having, the hydrous ethanol extract of Astilbe thunbergii prepared in the Test Example 2, suspended in the water for injection; administered at 100 mg/kg body weight or 300 mg/kg body weight
# Administration and Measurement of Blood Glucose Level
# Each GK rat (8-week-old male rat, 7 rats/experimental group) was fasted for 18 hours and its fasting blood glucose level was then measured. Thereafter, the test substance was orally administered to the rat using a disposable gastric probe and a disposable syringe. […] Blood was collected from the tail vein 30, 60, 90 and 120 minutes after the administration of dextrose, and the blood glucose level was measured using a simple type blood glucose meter (NIPRO Freestyle Freedom Lite, FS Blood Glucose Sensor Light, manufactured by Nipro Corporation).
Compound,blood glucose level [1] [mg/dL],blood glucose level [2] [mg/dL],"glucose AUC compared with negative control ([3]; 0 to 120 minutes after dextrose, anagliptin 10 mg/kg, extract 100 or 300 mg/kg)","time course of blood glucose level compared with negative control ([3]; after dextrose 2 g/kg, anagliptin 10 mg/kg oral, decrease since 60 minutes later)"
C[C@H]1O[C@H](O[C@H]2[C@H](O)[C@@H](O)[C@@H](O[C@H]3[C@H](O)[C@@H](O)C(O)O[C@@H]3CO)O[C@@H]2CO)[C@H](O)[C@@H](O)[C@@H]1N[C@H]1C=C(CO)[C@@H](O)[C@H](O)[C@H]1O (stereo partly shown) [acarbose],161 ± 45,117 ± 43,–,–
Cc1cc2ncc(C(=O)NCC(C)(C)NCC(=O)N3CCC[C@H]3C#N)cn2n1 [anagliptin],–,–,significantly decreases the glucose AUC,began to decrease earlier than that in the negative control
